Results taken from BigSolDB 2.1.

CCCCCCC1(CCCCCC)c2cc(Br)ccc2-c2ccc(Br)cc21
solubility (mole fraction)
Conditions	283.15 K	293.15 K	303.15 K	313.15 K	323.15 K
in 1,4-dioxane	–	0.0466	0.0801	0.113	0.17
in THF	0.0977	0.112	0.127	0.146	0.158
in acetonitrile	0.000305	0.000473	0.000684	0.000954	0.0012
in chloroform	0.0364	0.041	0.0483	0.0543	0.0613
in dichloromethane	0.0468	0.0633	0.0807	0.0987	0.118
in ethanol	0.00158	0.00182	0.00209	0.00233	0.00264
in ethyl acetate	0.0433	0.0613	0.0873	0.114	0.144
in isopropanol	0.000772	0.00117	0.00191	0.00293	0.00392
in methanol	0.000142	0.000189	0.000293	0.000427	0.000582
in n-butanol	0.00329	0.00586	0.00935	0.0127	0.0165
in n-hexane	0.0382	0.0578	0.0907	0.123	0.163
in toluene	0.0918	0.121	0.152	0.188	0.242
